What follows are compounds tested on Pseudomonas aeruginosa PAO1 MB9798 (efflux+, IMP-1). Settings: ratio MITC95 PA 9798/MITC95 PA 9799; imipenem at 2 μg/mL.
Method in brief: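 Isogenic PAO1 pair (efflux+ MB9798, efflux− MB9799, both IMP-1) tested by microbroth MIC with fixed imipenem and/or ceftazidime, usually at CLSI breakpoint, plus fixed class A/C inhibitor against AmpC. MBL inhibitor titrated; concentration restoring susceptibility recorded and fold difference between strains taken as efflux extent.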

Point of comparison: `C[C@H](CN)NS(=O)(=O)c1ccc(-c2cccc(N)n2)c(-c2nn[nH]n2)c1S(N)(=O)=O` [Example 318, (R)—N1-(1-aminopropan-2-yl)-4-(6-aminopyridin-2-yl)-3-(2H-tetrazol-5-yl) benzene-1,2-disulfonamide], Efflux ratio 1.00. Against it:
- CNS(=O)(=O)c1ccc(-c2cccc3sc(N)nc23)c(-c2nn[nH]n2)c1S(N)(=O)=O [Example 152, 4-(2-aminobenzo[d]thiazol-4-yl)-N1-methyl-3-(2H-tetrazol-5-yl)benzene-1,2-disulfonamide] — higher, 8.00
- Nc1nc2c(-c3ccc(S(=O)(=O)NC4(CO)CCNC4)c(S(N)(=O)=O)c3-c3nnn[nH]3)cccc2s1 (stereo not drawn) [Example 84, 4-(2-amino-1,3-benzothiazol-4-yl)-N1-[3-(hydroxymethyl)pyrrolidin-3-yl]-3-(1H-tetrazol-5-yl)benzene-1,2-disulfonamide] — the same, 1.00
- CS(=O)(=O)Nc1nc2c(-c3ccc(S(=O)(=O)N4CCNCC4)c(S(N)(=O)=O)c3-c3nn[nH]n3)cccc2s1 [Example 156, 3-(2-(Methylsulfonamido)benzo[d]thiazol-4-yl)-6-(piperazin-1-ylsulfonyl)-2-(2H-tetrazol-5-yl)benzenesulfonamide] — higher, 2.00
- Nc1nc2c(-c3ccc(S(=O)(=O)N4CC[C@H](N)C4)c(S(N)(=O)=O)c3-c3nnn[nH]3)cccc2s1 [Example 61, 3-(2-amino-1,3-benzothiazol-4-yl)-6-{[(3S)-3-aminopyrrolidin-1-yl]sulfonyl}-2-(1H-tetrazol-5-yl)benzenesulfonamide] — the same, 1.00
- NC[C@H](N)CNS(=O)(=O)c1ccc(-c2cccc3ccc(N)nc23)c(-c2nn[nH]n2)c1S(N)(=O)=O [Example 371, (S)-4-(2-aminoquinolin-8-yl)-N1-(2,3-diaminopropyl)-3-(2H-tetrazol-5-yl)benzene-1,2-disulfonamide] — the same, 1.00
- CNC(=O)CNS(=O)(=O)c1ccc(-c2cccc3sc(N)nc23)c(-c2nnn[nH]2)c1S(N)(=O)=O [Example 23, N^2-{[4-(2-amino-1,3-benzothiazol-4-yl)-2-sulfamoyl-3-(1H-tetrazol-5-yl)phenyl]sulfonyl}-N-methylglycinamide] — the same, 1.00

These compounds were tested on Serratia marcescens expressing IMP-1 (CL5741). Settings: with imipenem 1 μg/ml; 95% inhibition of bacterial growth.
Type: cell-based
Procedure: Antibiotic Potentiation Activity: Determination of Synergistic Concentration
The bacterial strains tested included the clinical strains Escherichia coli expressing NDM-1 (CLB30005, CLB30016), Serratia marcescens expressing IMP-1 (CL5741), and Klebsiella pneumoniae expressing VIM-1 (IHMA599644). Inhibitor activity was measured in the presence and absence of imipenem in a 384-well microplate.
The clinical strains CLB30016, CL5741 and IHMA599644 were grown on trypticase soy agar containing 5% sheep's blood. The bacteria on agar plates were incubated at 35° C. with humidity overnight. The following day, individual colonies from each clinical strain were picked and resuspended in 5 ml saline to attain an OD600 of 0.14, 0.11, 0.15 and 0.13, for CLB30016, CL5741 and IHMA599644, respectively. These were further diluted 1:100 into 1.1× CAMHB and used to inoculate the test wells as described below.
Imipenem in 10 mM 3-(N-morpholino)propanesulfonic acid (MOPS, pH 7) was stored in single use aliquots at −80° C. […] On the day of the assay, 4 μl of antibiotic was added to 45 ul of bacteria followed by 1 μl of test compound and mixed by pipetting and with an orbital shaker. The concentration of antibiotic used in the assay was 1 μg/ml. Microplates were covered and incubated at 35° C. for 22 hours to 24 hours. At the end of the incubation, absorbance was determined using a spectrophotometer.

Point of comparison: `NC[C@@H](CO)NS(=O)(=O)c1ccc(-c2ccc(N)nc2)c(-c2nn[nH]n2)c1S(N)(=O)=O` [Example 409, (S)-N^1-(1-amino-3-hydroxypropan-2-yl)-4-(6-aminopyridin-3-yl)-3-(2H-tetrazol-5-yl)benzene-1,2-disulfonamide], “Serratia marcescens (IMP-1) MITC95” value 1.563 µM. Against it:
- NCCCNS(=O)(=O)c1ccc(-c2cc(F)cc3[nH]c(N)nc23)c(-c2nn[nH]n2)c1S(N)(=O)=O [Example 402, 4-(2-amino-6-fluoro-1H-benzo[d]imidazol-4-yl)-N^1-(3-aminopropyl)-3-(2H-tetrazol-5-yl)benzene-1,2-disulfonamide] — 2-fold lower, 0.7813 µM
- C[C@H](CN)NS(=O)(=O)c1ccc(-c2ccc(N)nc2)c(-c2nn[nH]n2)c1S(N)(=O)=O [Example 393, (R)—N^1-(1-aminopropan-2-yl)-4-(6-aminopyridin-3-yl)-3-(2H-tetrazol-5-yl)benzene-1,2-disulfonamide] — 1.5-fold lower, 1.042 µM
- Nc1ccc2cccc(-c3ccc(S(=O)(=O)N[C@@H]4CCNC4)c(S(N)(=O)=O)c3-c3nn[nH]n3)c2n1 [Example 286, (R)-4-(2-aminoquinolin-8-yl)-N1-(pyrrolidin-3-yl)-3-(2H-tetrazol-5-yl)benzene-1,2-disulfonamide] — 2-fold lower, 0.7813 µM
- C[C@H](N)CNS(=O)(=O)c1ccc(-c2ccc(N)nc2)c(-c2nn[nH]n2)c1S(N)(=O)=O [Example 479, (S)—N1-(2-aminopropyl)-4-(6-aminopyridin-3-yl)-3-(2H-tetrazol-5-yl) benzene-1,2-disulfonamide] — 2-fold lower, 0.7813 µM
- NC[C@@H](O)CNS(=O)(=O)c1ccc(-c2ccc3nccn3c2)c(-c2nn[nH]n2)c1S(N)(=O)=O [Example 420, (R)-N^1-(3-amino-2-hydroxypropyl)-4-(imidazo[1,2-a]pyridin-6-yl)-3-(2H-tetrazol-5-yl)benzene-1,2-disulfonamide] — the same, 1.563 µM
- NCCNS(=O)(=O)c1ccc(-c2ccc3sc(CN)nc3c2)c(-c2nn[nH]n2)c1S(N)(=O)=O [Example 476, N1-(2-aminoethyl)-4-(2-(aminomethyl)benzo[d]thiazol-5-yl)-3-(2H-tetrazol-5-yl)benzene-1,2-disulfonamide] — 2-fold lower, 0.7813 µM
- CN(CCN)S(=O)(=O)c1ccc(-c2cccc3[nH]c(N)nc23)c(-c2nn[nH]n2)c1S(N)(=O)=O [Example 449, 4-(2-amino-1H-benzo[d]imidazol-4-yl)-N^1-(2-aminoethyl)-N^1-methyl-3-(2H-tetrazol-5-yl)benzene-1,2-disulfonamide] — the same, 1.563 µM
- NS(=O)(=O)c1c(S(=O)(=O)NC[C@H]2CNCCN2)ccc(-c2cccc3[nH]cnc23)c1-c1nn[nH]n1 [Example 481, (R)-4-(1H-benzo[d]imidazol-4-yl)-N1-(piperazin-2-ylmethyl)-3-(1H-tetrazol-5-yl)benzene-1,2-disulfonamide] — the same, 1.563 µM
- Nc1ccc(-c2ccc(S(=O)(=O)N[C@H]3CNC[C@H]3O)c(S(N)(=O)=O)c2-c2nn[nH]n2)cn1 [Example 410, 4-(6-aminopyridin-3-yl)-N^1-((3S,4R)-4-hydroxypyrrolidin-3-yl)-3-(2H-tetrazol-5-yl)benzene-1,2-disulfonamide] — 2-fold lower, 0.7813 µM
- Nc1nc(-c2cccc(-c3ccc(S(=O)(=O)N[C@@H]4CCNC4)c(S(N)(=O)=O)c3-c3nn[nH]n3)c2)c[nH]1 [Example 428, (R)-3′-(2-amino-1H-imidazol-4-yl)-N^4-(pyrrolidin-3-yl)-2-(2H-tetrazol-5-yl)-[1,1′-biphenyl]-3,4-disulfonamide] — 2-fold lower, 0.7813 µM
- Nc1ccc(-c2ccc(S(=O)(=O)N3CCNCC3)c(S(N)(=O)=O)c2-c2nn[nH]n2)cn1 [Example 485, 3-(6-aminopyridin-3-yl)-6-(piperazin-1-ylsulfonyl)-2-(2H-tetrazol-5-yl)benzenesulfonamide] — 2-fold lower, 0.7813 µM
- Cc1cc(-c2ccc(S(=O)(=O)NC[C@@H](O)CN)c(S(N)(=O)=O)c2-c2nn[nH]n2)cnc1N [Example 468, (S)-N1-(3-amino-2-hydroxypropyl)-4-(6-amino-5-methylpyridin-3-yl)-3-(2H-tetrazol-5-yl)benzene-1,2-disulfonamide] — 2-fold lower, 0.7813 µM
- C[C@@H](CN)NS(=O)(=O)c1ccc(-c2cc(F)cc3[nH]c(N)nc23)c(-c2nn[nH]n2)c1S(N)(=O)=O [Example 397, (S)-4-(2-amino-6-fluoro-1H-benzo[d]imidazol-4-yl)-N^1-(1-aminopropan-2-yl)-3-(2H-tetrazol-5-yl)benzene-1,2-disulfonamide] — 2-fold lower, 0.7813 µM
- Nc1nc2c(-c3ccc(S(=O)(=O)N[C@@H]4C[C@H]4N)c(S(N)(=O)=O)c3-c3nnn[nH]3)cccc2[nH]1 [Example 448, 4-(2-amino-1H-benzo[d]imidazol-4-yl)-N^1-((1R,2R)-2-aminocyclopropyl)-3-(1H-tetrazol-5-yl)benzene-1,2-disulfonamide] — the same, 1.563 µM
- Nc1ccc(-c2ccc(S(=O)(=O)NC[C@@H]3CCNC3)c(S(N)(=O)=O)c2-c2nn[nH]n2)cn1 [Example 491, (R)-4-(6-aminopyridin-3-yl)-N1-(pyrrolidin-3-ylmethyl)-3-(2H-tetrazol-5-yl)benzene-1,2-disulfonamide] — 2-fold lower, 0.7813 µM

Same assay, conditions: with imipenem 1 μg/ml; 95% inhibition of bacterial growth; CL5741

Point of comparison: `Cl.Cl.NCCCNS(=O)(=O)c1ccc(-c2ccc(N)nc2)c(-c2nn[nH]n2)c1S(N)(=O)=O` [Example 496, N1-(3-aminopropyl)-4-(6-aminopyridin-3-yl)-3-(2H-tetrazol-5-yl)benzene-1,2-disulfonamide hydrogen chloride], “Serratia marcescens (IMP-1) MITC95” value 0.7813 µM. Against it:
- Nc1ccc(-c2ccc(S(=O)(=O)N[C@H]3CCCNC3)c(S(N)(=O)=O)c2-c2nn[nH]n2)cn1 [Example 494, (S)-4-(6-aminopyridin-3-yl)-N1-(piperidin-3-yl)-3-(2H-tetrazol-5-yl)benzene-1,2-disulfonamide] — 2-fold higher, 1.563 µM
- Nc1ccc(-c2ccc(S(=O)(=O)NCC3(O)CNC3)c(S(N)(=O)=O)c2-c2nn[nH]n2)cn1 [Example 495, 4-(6-aminopyridin-3-yl)-N1-((3-hydroxyazetidin-3-yl)methyl)-3-(2H-tetrazol-5-yl)benzene-1,2-disulfonamide] — the same, 0.7813 µM
- CC1(NS(=O)(=O)c2ccc(-c3ccc(N)nc3)c(-c3nn[nH]n3)c2S(N)(=O)=O)CNC1.Cl.Cl [Example 497, 4-(6-aminopyridin-3-yl)-1-N-(3-methylazetidin-3-yl)-3-(2H-1,2,3,4-tetrazol-5-yl)benzene-1,2-disulfonamide hydrogen chloride] — the same, 0.7813 µM
